Measured values reported in patent publication US20080319031A1, “Novel Tyrosine Derivatives” (Orchid Chemicals & Pharmaceuticals Limited, priority 2005, published 2008).

How the values were obtained:
IL-6 = IL-6 inhibition in LPS-challenged human PBMC (ELISA); type: cell-based; details: hPBMC 1×10^6/mL, LPS 100 ng/mL for 20 hours, different concentrations
Experimental: (§1) FIG. 1. TNF-α, IL-6 and IL-1β inhibition in human peripheral blood monocytic cells (hPBMC).
(§2) Human PBMC cells were cultured and incubated with compound 1 in example 1 at different concentrations. Cells (1×10^6/mL) were challenged with lipopolysaccharides (LPS) at a concentration of (100 ng/mL) for 20 hours. Cell supernatant was analyzed for the presence of TNF-α, IL-1β and IL-6 cytokines by antibody directed enzyme-linked immunoassay.

COX-1 = molecular target: T1, COX-1 (Homo sapiens, UniProt P23219); test: COX-1 activity: arachidonic acid induced PGE-2 in U-937 cells; type: cell-based; details: 10 μM compound, 10 μM arachidonic acid 20 min
T1 construct: endogenous in cells; host or cells: U-937 human monocytic cells
Experimental: (§3) The inflammatory stimulus, LPS, also induces cycloxygenase-2 (COX-2) enzyme in this system and as a result prostaglandin E 2 (PGE-2) is produced. Human PBMC cells were cultured and incubated with compound in example 1 at different concentrations. Cells (1×10^6/mL) were challenged with lipopolysaccharides (LPS) at a concentration of (100 ng/mL) for 20 hours. Inhibition of COX-2 was determined by the measurement of PGE-2 levels in the supernatant by ELISA (Cayman Chemicals). For the determination of PGE-2 levels, supernatants were incubated in the ELISA plate and detected by calorimetric reaction. […] The endogenous form, COX-1 is only activated when there is a physiological stimulus and goes through the same pathway for the production of PGE-2 levels. Human monocytic U-937 (2.5×10^5/mL) cells were charged with arachidonic acid to activate the COX-1 pathway. It produced PGE-2 following these kind of physiological induction. To assay the COX-1 activity, cells were preincubated with the compound for 15 min (indomethacin was kept as positive control) and then they were challenged with 10 μM arachidonic acid for next 20 min. Supernatants were harvested and measured for PGE-2 as marker of COX-1 activity.

[1] = test system: human peripheral blood mononuclear cells; test: Cell viability of human PBMC incubated with compound; type: cell-based; details: hPBMC, highest concentration of the compound
COX-2 = molecular target: T2, COX-2 (Homo sapiens, UniProt P35354); test: COX-2 inhibition: LPS induced PGE-2 in human PBMC (ELISA); type: cell-based
T2 construct: LPS, also induces cycloxygenase-2 (COX-2) enzyme in this system; endogenous in cells; host or cells: human peripheral blood mononuclear cells from volunteers, LPS-stimulated
T2 sequence (P35354 18-604): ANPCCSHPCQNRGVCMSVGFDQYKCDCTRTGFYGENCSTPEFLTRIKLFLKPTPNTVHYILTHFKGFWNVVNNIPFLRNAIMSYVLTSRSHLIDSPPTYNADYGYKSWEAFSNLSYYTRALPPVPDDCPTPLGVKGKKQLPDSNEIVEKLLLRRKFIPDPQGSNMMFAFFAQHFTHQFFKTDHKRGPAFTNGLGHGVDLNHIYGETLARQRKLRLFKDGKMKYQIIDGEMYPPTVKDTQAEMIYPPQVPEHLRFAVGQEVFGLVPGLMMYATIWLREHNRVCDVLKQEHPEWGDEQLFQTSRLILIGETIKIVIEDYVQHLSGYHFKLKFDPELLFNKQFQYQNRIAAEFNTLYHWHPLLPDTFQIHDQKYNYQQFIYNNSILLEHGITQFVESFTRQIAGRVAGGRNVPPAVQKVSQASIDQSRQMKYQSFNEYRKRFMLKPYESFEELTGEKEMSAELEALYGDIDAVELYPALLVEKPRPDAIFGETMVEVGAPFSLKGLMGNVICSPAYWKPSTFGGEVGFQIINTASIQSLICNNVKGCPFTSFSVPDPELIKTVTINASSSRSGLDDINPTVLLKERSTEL
Experimental: as §3

TNF-α [2] = test: TNF-α inhibition in LPS-challenged human PBMC (ELISA); type: cell-based; details: hPBMC 1×10^6/mL, LPS 100 ng/mL for 20 hours, different concentrations
Experimental: as §1, §2

IL-1β = IL-1β inhibition in LPS-challenged human PBMC (ELISA); type: cell-based; details: hPBMC 1×10^6/mL, LPS 100 ng/mL for 20 hours, different concentrations
Experimental: as §1, §2

SJL/J mice = test: Experimental allergic encephalomyelitis (EAE) model of multiple sclerosis; type: in vivo; details: EAE induced by spinal chord homogenate in SJL/J mice
Experimental: Multiple Sclerosis (MS) is an autoimmune disease and is regulated by cytokine levels. In order to test the effect of compound 1 in example 1 in MS model, experimental allergic encepahalomyalitis (EAE) was induced in SJL/J mice. EAE is an autoimmune inflammatory disease of the central nervous system (CNS). […] EAE was induced by injecting spinal chord homogenate and the animals were treated with example compounds. The severity of EAE was established by clinical scores of paralysis.

TNF-α [3] = test: LPS induced TNF-α production in vivo; set-up: species or system Swiss Webster (SW) mice; details: one hour before LPS 10 μg/mouse ip, blood after 90 min
Experimental: FIG. 3. Compound 1 Inhibits LPS Induced TNF-α Production In Vivo.
Swiss Webster (SW) mice were orally treated with vehicle, dexamethasone (5 mg/kg bw) and compound 1 in example 1 (50 mg/kg bw) one hour before LPS injection (10 μg/mouse, ip) and blood was collected after 90 min and measured TNF-α levels by ELISA as described in FIG. 1.

DU-145 = test: Prostate cancer cell growth (MTS viability); type: cell-based; details: DU-145, six consecutive days, MTS every 48 hrs
Experimental: DU-145 is a prostate cancer cell and they were grown in 96 well plates at 1000 cells/well. The cells were pretreated with either compound 11 in example 11 and 8 in example 8 or DMSO for six consecutive days. Every 48 hrs they were stained with MTS dye and viability was checked accordingly.

MCF-7 = test: Breast cancer cell growth (MTS viability); type: cell-based; details: for inhibition of breast cancer cell growth: MCF-7, six consecutive days, MTS every 48 hrs
Experimental: MCF-7 is a breast cancer cells and they were grown in 96 well plates at 1000 cells/well. The cells were pretreated with either compound 11 in example 11 and 8 in example 8 or DMSO for six consecutive days. Every 48 hrs they were stained with MTS dye and viability was checked accordingly.

[4] = test system: C57BL/6J male ob/ob diabetic mice; test: Blood glucose in ob/ob mice; type: in vivo; details: 50 mg/kg body weight oral in water, within six days of treatment
Experimental: FIG. 6. Lowering of Blood Glucose in ob/ob Mice by Compound 20 in Example 20. Seven weeks old C57BL/6J male ob/ob (obese, insulin resistant spontaneous model of type-II diabetes) diabetic mice were orally treated with compound 20 in example 20, at a dose of 50 mg/kg body weight dissolved in water and blood glucose (FIG. 6) was monitored by Accuchek glucometer.

Diet induced obese mice [5] = test: OGTT and serum insulin in diet induced obesity model; type: in vivo, C57BL/6J male mouse; details: day 60 of high fat feeding
Experimental: C57BL/6J male mouse were fed with 60% Kcal high fat diet (D12492, Research Diet) ad libitum 15 days prior to the beginning of the treatment. Diet induced obese mice were treated with a dose of 50 mg/kg body weight compound 20 in example 20 and their bodyweight was monitored on every third day. […] FIG. 8. Oral Glucose Tolerance Test (OGTT) in Diet Induced Obesity Model for Compound 20 in Example 20. […] To see the effect of compound 20 in example 20, on day 60 an OGTT study was carried to observe the improvement of glucose tolerance upon the treatment of compound 20 in example 20.

Diet induced obese mice [6] = test: Body weight in diet induced obesity mouse model; type: in vivo, C57BL/6J male mouse; details: 60% Kcal high fat diet, 50 mg/kg body weight, compared to vehicle
Experimental: FIG. 7. Effect of Compound 20 in Example 20 on Diet Induced Obesity Mouse Models. C57BL/6J male mouse were fed with 60% Kcal high fat diet (D12492, Research Diet) ad libitum 15 days prior to the beginning of the treatment. Diet induced obese mice were treated with a dose of 50 mg/kg body weight compound 20 in example 20 and their bodyweight was monitored on every third day.

3T3-L1 fibroblasts = test: Adipogenesis in 3T3-L1 fibroblasts (Oil-red-O staining); type: cell-based
Experimental: FIG. 9. Compound 20 in Example 20 is Not Adipogenic.
All known PPARγ agonists induce differentiation in fibroblast cells. The adipogenic potential of these compounds are correlated with their affinity to this receptor. To check quickly the affinity of compound 20 in example 20 to this receptors, 3T3-L1 fibroblasts were treated with either DMSO control or rosiglitazone as positive control or these two compounds for several days at different concentrations. On day 13th, the differentiated adipocytes were stained with Oil-red-O (Sigma) and washed thoroughly to remove unbound stain and visualized under Olympus microscope.

[7] = test system: db/db (spontaneous model) diabetic mice; test: Blood glucose and body weight in db/db obese diabetic mice; type: in vivo; details: 50 mg/kg body weight oral in water
Experimental: FIG. 5. […] Seven weeks old male db/db (spontaneous model) diabetic mice were orally treated with compound 20 in example 20 at a dose of 50 mg/kg body weight in water and blood glucose was monitored by Accuchek glucometer.

HCT-116 = test: Colon cancer cell growth (MTS viability); type: cell-based, human; details: 30 μM, 48 hrs
Experimental: FIG. 10. […] HCT-116 is a human colon cancer cell line and they were grown in 96 well plates with seeding concentration of […] cells/mL.

T1 sequence (P23219 24-599): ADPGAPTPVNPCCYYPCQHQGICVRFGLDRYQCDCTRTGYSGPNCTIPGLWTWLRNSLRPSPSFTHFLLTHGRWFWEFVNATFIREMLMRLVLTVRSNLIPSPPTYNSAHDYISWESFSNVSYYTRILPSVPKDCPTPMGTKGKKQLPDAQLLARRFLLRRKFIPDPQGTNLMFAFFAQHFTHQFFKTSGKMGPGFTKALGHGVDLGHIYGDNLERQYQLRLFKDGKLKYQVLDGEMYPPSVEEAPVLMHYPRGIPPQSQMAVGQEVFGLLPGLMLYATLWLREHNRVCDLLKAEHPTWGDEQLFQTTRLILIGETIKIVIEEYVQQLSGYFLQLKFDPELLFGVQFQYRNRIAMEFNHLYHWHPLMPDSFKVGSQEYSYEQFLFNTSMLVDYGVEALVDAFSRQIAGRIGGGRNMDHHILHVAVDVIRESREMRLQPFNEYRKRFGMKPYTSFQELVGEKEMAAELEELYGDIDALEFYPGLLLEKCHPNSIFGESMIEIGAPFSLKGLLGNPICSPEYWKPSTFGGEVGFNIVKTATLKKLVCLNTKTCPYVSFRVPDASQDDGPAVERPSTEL

COC(=O)C(N)Cc1ccc(Oc2ccc(C=C3C(=O)Nc4ccccc43)cc2)cc1.Cl (stereo not drawn) [Compound 1, Methyl-2-amino-3-(4-{4-[(2-oxo-1,2-dihydro-3H-indol-3-ylidene)methyl]phenoxy}phenyl) propanoate hydrochloride]
inhibition of IL-6 production (IL-6): inhibit the production of three major pro-inflammatory cytokines in a dose dependent manner | effect on arachidonic acid induced PGE-2 levels (COX-1 activity) (COX-1): no effect on arachidonic acid induced PGE-2 levels | change in cell viability [1]: No significant change in cell viability | inhibition of LPS induced PGE-2 production (COX-2; 10 μM compound, hPBMC): completely inhibited LPS induced PGE-2 production | selectivity on COX-2 over COX-1 activity (COX-2; LPS induced vs arachidonic acid induced PGE-2): Selectively Inhibits COX-2 Than COX-1 Enzyme | inhibition of LPS induced COX-2 activity (PGE-2 levels) (COX-2; hPBMC, LPS 100 ng/mL for 20 hours, different concentrations): dose dependently inhibited LPS induced COX-2 activity | inhibition of TNF-α production (TNF-α [2]): inhibit the production of three major pro-inflammatory cytokines in a dose dependent manner | inhibition of IL-1β production (IL-1β): inhibit the production of three major pro-inflammatory cytokines in a dose dependent manner | severity of EAE (clinical scores of paralysis) (SJL/J mice): complete prevention of EAE | reduction of TNF levels compared to control group (TNF-α [3]; 50 mg/kg bw oral): 25%

COC(=O)C(N)Cc1ccc(Oc2ccc(C=C3C(=O)Nc4ccccc43)c(C(F)(F)F)c2)cc1.Cl (stereo not drawn) [Compound 8, Methyl-2-amino-3-(4-{3-trifluoromethyl-4-[(2-oxo-1,2-dihydro-3H-indol-3-ylidene)methyl]phenoxy}phenyl) propanoate hydrochloride]
inhibition of prostate cancer cell growth (DU-145): selectively kills breast cancer cells | dose dependence of breast cancer cell growth inhibition (MCF-7; MCF-7, doses from 1-50 μM): worked equally well | inhibition of breast cancer cell growth (MCF-7): very strong in inhibiting the breast cancer cell growth

COC(=O)C(N)Cc1ccc(Oc2ccc(CC3C(=O)Nc4ccccc43)cc2C(F)(F)F)cc1.Cl (stereo not drawn) [Compound 11, Methyl-2-amino-3-(4-{2-trifluoromethyl-4-[(2-oxo-2,3-dihydro-1H-indol-3-yl)methyl]phenoxy}phenyl) propanoate hydrochloride]
inhibition of prostate cancer cell growth (DU-145): very similar in both breast and prostate cancer cells | inhibition of breast cancer cell growth (MCF-7): Inhibits Breast Cancer Cell Growth

CN(C)C(=O)[C@@H](N)Cc1ccc(Oc2ccc(/C=C3/C(=O)Nc4ccccc43)cc2)cc1.Cl [Compound 20, 2-amino-N,N-dimethyl-3-{4-[4-(2-oxo-1,2-dihydroindol-3-ylidenemethyl)-phenoxy]-phenyl}-propionamide hydrochloric acid]
blood glucose [4]: strong glucose lowering activity | decrease of serum insulin level (Diet induced obese mice [5]): 70% | body weight gain (Diet induced obese mice [6]): less body weight gain compared to vehicle treated animals | adipogenesis (differentiation of fibroblasts) (3T3-L1 fibroblasts; 3T3-L1, different concentrations, stained on day 13): remained unchanged | affinity to PPARγ receptor (indirect proof from adipogenesis) (3T3-L1 fibroblasts; inferred from 3T3-L1 adipogenesis): no affinity to PPARγ receptor | blood glucose [7]: Reduces Blood Glucose | body weight ([7]; compared to vehicle): lowering of body weight compared to vehicle

Cl.NC(=O)[C@@H](N)Cc1ccc(Oc2ccc(/C=C3/C(=O)Nc4ccccc43)cc2)cc1 [Compound 21, 2-amino-3-{4-[4-(2-oxo-1,2-dihydroindol-3-ylidenemethyl)-phenoxy]-phenyl}-propionamide hydrochloric acid]
inhibition of colon cancer cell growth (HCT-116): completely inhibited colon cancer cell growth

C[C@@H]1C[C@H]2[C@@H]3CCC4=CC(=O)C=C[C@]4(C)[C@@]3(F)[C@@H](O)C[C@]2(C)[C@@]1(O)C(=O)CO [dexamethasone, reference compound]
inhibition of TNF levels (TNF-α [3]; 5 mg/kg body weight oral): 95%
